pIC50: −log10 of the molar value. Like-named read-outs stand apart in the source and are kept apart here.
Experiments:
Assay type in all cases: biochemical
[1] = target: T1, Btk (Homo sapiens, UniProt Q06187); test: Btk in vitro inhibitory activity (one of Method A TR-FRET, Method B electrophoretic mobility shift, Method C radiometric filter binding)
T1 construct: purified from insect cells as a full-length construct containing a N-terminal 6X-His tag; His6 (N); made in house; host or cells: insect cells (Method C)
T1 sequence (Q06187 whole entry): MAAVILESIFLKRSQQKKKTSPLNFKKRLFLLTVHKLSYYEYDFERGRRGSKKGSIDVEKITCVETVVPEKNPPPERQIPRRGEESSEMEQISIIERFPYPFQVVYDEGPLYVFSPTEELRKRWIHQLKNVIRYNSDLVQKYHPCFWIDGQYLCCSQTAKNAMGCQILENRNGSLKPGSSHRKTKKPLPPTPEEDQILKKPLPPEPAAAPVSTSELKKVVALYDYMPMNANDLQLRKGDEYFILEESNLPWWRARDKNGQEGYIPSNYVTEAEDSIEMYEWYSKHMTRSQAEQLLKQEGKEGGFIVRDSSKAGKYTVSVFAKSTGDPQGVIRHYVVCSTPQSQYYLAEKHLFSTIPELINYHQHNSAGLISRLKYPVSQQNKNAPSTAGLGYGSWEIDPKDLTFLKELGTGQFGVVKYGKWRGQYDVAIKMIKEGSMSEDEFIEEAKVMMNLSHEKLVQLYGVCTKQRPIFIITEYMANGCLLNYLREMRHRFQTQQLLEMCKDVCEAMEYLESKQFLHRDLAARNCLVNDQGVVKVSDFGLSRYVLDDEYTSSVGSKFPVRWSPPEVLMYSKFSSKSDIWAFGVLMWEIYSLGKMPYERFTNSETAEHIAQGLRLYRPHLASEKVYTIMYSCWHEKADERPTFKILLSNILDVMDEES
Summary of the method: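 Method A: TR-FRET with 0.5 nM Btk at [ATP]=Km, EDTA-quenched, 665/615 nm ratio; Ki(app) converted to IC50. Method B: 1 nM full-length His6 human BTK, 1 μM FAM peptide, pH 7.5, mobility-shift product/sum ratio, 12-point 4-parameter fit. Method C: radiometric filter binding, 8 nM His-tagged BTK, 0.2 mg/mL poly-Glu-Tyr.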

[2] = target: T2, TEC (Homo sapiens, UniProt P42680); test: Inhibition of a panel of kinases (in vitro HotSpot kinase assay, 33P-ATP, 1 μM ATP); settings: for pIC50: HotSpot kinase assay, 1 μM ATP; for TEC/Btk: ratio of TEC IC50 to Btk IC50 (selectivity)
T2 sequence (P42680 1-631): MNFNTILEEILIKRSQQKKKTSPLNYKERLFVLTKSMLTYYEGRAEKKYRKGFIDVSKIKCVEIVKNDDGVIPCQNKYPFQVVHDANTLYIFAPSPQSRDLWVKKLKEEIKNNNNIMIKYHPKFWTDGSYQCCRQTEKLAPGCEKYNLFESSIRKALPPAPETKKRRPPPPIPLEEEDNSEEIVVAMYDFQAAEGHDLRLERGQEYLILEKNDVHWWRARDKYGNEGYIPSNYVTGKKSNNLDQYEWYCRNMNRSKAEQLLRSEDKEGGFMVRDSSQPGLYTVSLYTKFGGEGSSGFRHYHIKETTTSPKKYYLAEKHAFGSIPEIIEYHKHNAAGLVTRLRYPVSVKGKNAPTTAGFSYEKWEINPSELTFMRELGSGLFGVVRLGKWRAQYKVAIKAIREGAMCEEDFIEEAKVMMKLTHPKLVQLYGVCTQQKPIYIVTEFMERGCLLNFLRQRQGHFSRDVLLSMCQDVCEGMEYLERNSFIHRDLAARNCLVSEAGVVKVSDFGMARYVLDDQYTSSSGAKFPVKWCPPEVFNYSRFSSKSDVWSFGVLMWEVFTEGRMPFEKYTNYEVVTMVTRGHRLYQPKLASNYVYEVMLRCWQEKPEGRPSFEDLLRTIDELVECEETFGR
Summary of the method: (§1)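 Degree of kinase inhibition is determined in vitro using isolated enzymes, a matched substrate and radiolabelled ATP (1 μM).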

[3] = target: T3, panel of kinases (Homo sapiens, UniProt P51813); test: Inhibition of a panel of kinases (in vitro HotSpot kinase assay, 33P-ATP, 1 μM ATP), other kinases; settings: BMX wild-type, read-out: BMX-WT IC50
T3 sequence (P51813 1-675): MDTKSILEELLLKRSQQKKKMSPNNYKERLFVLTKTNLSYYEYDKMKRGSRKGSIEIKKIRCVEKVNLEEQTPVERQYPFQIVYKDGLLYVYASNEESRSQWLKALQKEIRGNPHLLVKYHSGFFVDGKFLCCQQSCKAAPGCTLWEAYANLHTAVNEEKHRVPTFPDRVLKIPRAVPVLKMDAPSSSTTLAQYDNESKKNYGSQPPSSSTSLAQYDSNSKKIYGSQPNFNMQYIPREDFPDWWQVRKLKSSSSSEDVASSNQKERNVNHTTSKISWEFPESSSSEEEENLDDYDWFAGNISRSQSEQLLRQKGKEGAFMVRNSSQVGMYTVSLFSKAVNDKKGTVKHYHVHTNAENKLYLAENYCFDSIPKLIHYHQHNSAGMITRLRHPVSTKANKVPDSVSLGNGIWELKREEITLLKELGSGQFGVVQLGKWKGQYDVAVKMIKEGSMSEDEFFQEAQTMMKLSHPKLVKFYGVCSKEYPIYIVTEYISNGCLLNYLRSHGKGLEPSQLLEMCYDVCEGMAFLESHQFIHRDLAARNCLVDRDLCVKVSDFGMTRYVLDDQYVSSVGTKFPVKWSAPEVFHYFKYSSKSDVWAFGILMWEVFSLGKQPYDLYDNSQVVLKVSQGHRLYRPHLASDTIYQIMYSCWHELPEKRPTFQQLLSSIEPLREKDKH
Summary of the method: as §1

[4] = wild-type Btk, read-out: Btk-WT IC50

| Structure (SMILES) | pIC50 [1, 4] | pIC50 [2] | pIC50 [3] | TEC/Btk [2] | pIC50 ([1]; method is one of A, B or C, not stated which, read-out: IC50 values against Btk) |
| --- | --- | --- | --- | --- | --- |
| C=CC(=O)N[C@@H]1CCN(c2n[nH]c3nccc(-c4ccc([C@@H](C)NC(=O)c5cc(C(C)(C)O)on5)c(F)c4)c23)C1 [Example 353, N-{(1R)-1-[2-fluoro-4-(3-{(3R)-3-[(prop-2-enoyl)amino]pyrrolidin-1-yl}-1H-pyrazolo[3,4-b]pyridin-4-yl)phenyl]ethyl}-5-(2-hydroxypropan-2-yl)-1,2-oxazole-3-carboxamide] | 9.61 | 7.17 | 7.46 | – | – |
| C=CC(=O)N1CC[C@@H](Nc2n[nH]c3nccc(-c4ccc([C@@H](C)NC(=O)c5noc(C(C)(C)C)n5)c(F)c4)c23)C1 [Example 372, 5-tert-butyl-N-{(1R)-1-[2-fluoro-4-(3-{[(3R)-1-(prop-2-enoyl)pyrrolidin-3-yl]amino}-1H-pyrazolo[3,4-b]pyridin-4-yl)phenyl]ethyl}-1,2,4-oxadiazole-3-carboxamide] | 10.22 | 7.52 | 7.44 | – | – |
| CC(C)(C)c1nc(C(=O)NC2(c3ccc(-c4ccnc5[nH]nc(N[C@@H]6CCNC6)c45)cc3)CC2)no1 [Compound 1, 5-tert-butyl-N-{1-[4-(3-{[(3R)-pyrrolidin-3-yl]amino}-1H-pyrazolo[3,4-b]pyridin-4-yl)phenyl]cyclopropyl}-1,2,4-oxadiazole-3-carboxamide] | 7.24 | < 5.00 | < 5.00 | >100 | – |
| C=CC(=O)N1CC[C@@H](Nc2n[nH]c3nccc(-c4ccc(CNC(=O)c5ccc(C(F)(F)F)cc5)c(F)c4)c23)C1 [Compound 48, (R)—N-(4-(3-((1-acryloylpyrrolidin-3-yl)amino)-1H-pyrazolo[3,4-b]pyridin-4-yl)-2-fluorobenzyl)-4-(trifluoromethyl)benzamide] | 9.10 | 7.19 | 7.34 | 81 | – |
| CC1(C(=O)N2CC[C@@H](Nc3n[nH]c4nccc(-c5ccc(C6(NC(=O)c7noc(C(C)(C)C)n7)CC6)cc5)c34)C2)COC1 [Compound 30, (R)-5-(tert-butyl)-N-(1-(4-(3-((1-(3-methyloxetane-3-carbonyl)pyrrolidin-3-yl)amino)-1H-pyrazolo[3,4-b]pyridin-4-yl)phenyl)cyclopropyl)-1,2,4-oxadiazole-3-carboxamide] | 6.60 | – | 5.17 | 39 | – |
| C=CC(=O)N1CCC[C@@H](Nc2n[nH]c3nccc(-c4ccc(C5(NC(=O)c6noc(C(C)(C)C)n6)CC5)c(F)c4)c23)C1 [Example 133, 5-tert-butyl-N-{1-[2-fluoro-4-(3-{[(3R)-1-(prop-2-enoyl)piperidin-3-yl]amino}-1H-pyrazolo[3,4-b]pyridin-4-yl)phenyl]cyclopropyl}-1,2,4-oxadiazole-3-carboxamide] | 9.11 | 6.59 | 6.95 | 330 | – |
| C=CC(=O)N1CC[C@@H](Nc2n[nH]c3nccc(-c4ccc(CNC(=O)c5cn6c(C)cccc6n5)c(F)c4)c23)C1 [Example 390, N-{[2-fluoro-4-(3-{[(3R)-1-(prop-2-enoyl)pyrrolidin-3-yl]amino}-1H-pyrazolo[3,4-b]pyridin-4-yl)phenyl]methyl}-5-methylimidazo[1,2-a]pyridine-2-carboxamide] | 7.42 | 6.15 | 6.79 | – | – |
| C=CC(=O)N1CC[C@@H](Nc2n[nH]c3nccc(-c4ccc(CNC(=O)c5cc(Cl)on5)c(F)c4)c23)C1 [Example 342, 5-chloro-N-{[2-fluoro-4-(3-{[(3R)-1-(prop-2-enoyl)pyrrolidin-3-yl]amino}-1H-pyrazolo[3,4-b]pyridin-4-yl)phenyl]methyl}-1,2-oxazole-3-carboxamide] | 8.42 | 6.68 | 7.54 | – | – |
| CC(=O)N[C@@H]1CCN(c2n[nH]c3nccc(-c4ccc(CNC(=O)c5ccc(C(C)(C)O)cn5)c(F)c4)c23)C1 [Example 424, N-[(4-{3-[(3R)-3-acetamidopyrrolidin-1-yl]-1H-pyrazolo[3,4-b]pyridin-4-yl}-2-fluorophenyl)methyl]-5-(2-hydroxypropan-2-yl)pyridine-2-carboxamide] | 7.54 | 5.26 | 5.16 | – | – |
| O=C(NCc1ccc(-c2ccnc3[nH]nc(N[C@@H]4CCNC4)c23)cc1F)c1ccccc1 [Compound 31, (R)—N-(2-fluoro-4-(3-(pyrrolidin-3-ylamino)-1H-pyrazolo[3,4-b]pyridin-4-yl)benzyl)benzamide] | < 5.00 | 5.19 | 5.77 | – | – |
| C[C@@H](NC(=O)c1nc(C(C)(C)C)no1)c1ccc(-c2ccnc3[nH]nc(N4CCNCC4)c23)cc1 [Example 238, 3-tert-butyl-N-[(1R)-1-{4-[3-(piperazin-1-yl)-1H-pyrazolo[3,4-b]pyridin-4-yl]phenyl}ethyl]-1,2,4-oxadiazole-5-carboxamide] | 8.37 | 5.34 | 5.57 | 1087 | – |

More lines, now with the values ahead:

| pIC50 [1, 4] | pIC50 [2] | pIC50 [3] | TEC/Btk [2] | pIC50 ([1]; method is one of A, B or C, not stated which, read-out: IC50 values against Btk) | Structure (SMILES) |
| --- | --- | --- | --- | --- | --- |
| 8.84 | 5.38 | 5.72 | – | – | CN(Cc1ccc(-c2ccnc3[nH]nc(N4CC[C@@H](N)C4)c23)cc1F)C(=O)c1nc(C(C)(C)C)no1 [Example 334, (R)-N-({4-[3-(3-aminopyrrolidin-1-yl)-1H-pyrazolo[3,4-b]pyridin-4-yl]-2-fluorophenyl}methyl)-3-tert-butyl-N-methyl-1,2,4-oxadiazole-5-carboxamide] |
| 6.76 | < 5.00 | 5.35 | >100 | – | CC(C)(C)c1ccc(C(=O)NCc2ccc(-c3ccnc4[nH]nc(NC5CCNCC5)c34)cc2F)cc1 [Example 103, 4-tert-butyl-N-[(2-fluoro-4-{3-[(piperidin-4-yl)amino]-1H-pyrazolo[3,4-b]pyridin-4-yl}phenyl)methyl]benzamide] |
| 8.13 | 6.13 | 6.35 | – | – | C=CC(=O)N[C@@H]1CC[C@H](C)N(c2n[nH]c3nccc(-c4ccc(CNC(=O)c5cc(C(C)(C)C)on5)c(F)c4)c23)C1 [Example 323, 5-tert-butyl-N-{[2-fluoro-4-(3-{(2S,5R)-2-methyl-5-[(prop-2-enoyl)amino]piperidin-1-yl}-1H-pyrazolo[3,4-b]pyridin-4-yl)phenyl]methyl}-1,2-oxazole-3-carboxamide] |
| 7.72 | 5.49 | 5.70 | 169 | – | CC(C)(C)c1nc(C(=O)NCc2ccc(-c3ccnc4[nH]nc(N[C@H]5CC[C@@H](N)CC5)c34)cc2F)no1 [Example 153, 5-tert-butyl-N-{[2-fluoro-4-(3-{[(1s,4s)-4-aminocyclohexyl]amino}-1H-pyrazolo[3,4-b]pyridin-4-yl)phenyl]methyl}-1,2,4-oxadiazole-3-carboxamide] |
| 9.63 | 6.39 | 6.64 | 1726 | > 8.00 | C=CC(=O)N[C@H]1CC[C@@H](Nc2n[nH]c3nccc(-c4ccc(CNC(=O)c5noc(C(C)(C)C)n5)c(F)c4)c23)CC1 [Example 154, 5-tert-butyl-N-{[2-fluoro-4-(3-{[(1s,4s)-4-(prop-2-enamido)cyclohexyl]amino}-1H-pyrazolo[3,4-b]pyridin-4-yl)phenyl]methyl}-1,2,4-oxadiazole-3-carboxamide] |
| 7.96 | 5.15 | 5.53 | – | – | CC(C)(C)c1noc(C(=O)NCc2ccc(-c3ccnc4[nH]nc(OC5CCNC5)c34)cc2F)n1 (centres unmarked) [Example 283, 3-tert-butyl-N-[(2-fluoro-4-{3-[(pyrrolidin-3-yl)oxy]-1H-pyrazolo[3,4-b]pyridin-4-yl}phenyl)methyl]-1,2,4-oxadiazole-5-carboxamide] |

Source: US20180194762A1 (Pharmacyclics LLC, priority 2017, published 2018)
